Results published in patent publication US20060165722A1 (priority 2005, published 2006).
Entries after “also recorded” stand apart in the source; their conditions may differ.

Key:
tetanus toxin = tested on: tetanus toxin; set-up: species or system mice; conditions: mouse, in vivo
C57BL/6 female mice = conditions: mouse, in vivo
human monocytes = assay: FACS analysis of human monocytes stimulated with AT1002; type: cell-based; conditions: 18 hours
human macrophages = assay: FACS analysis of human macrophages stimulated with AT1002; type: cell-based
[1] = AT1002 20 micrograms/ml and 1 microgram/ml

Substance	range of anti-TT IgG titer (tetanus toxin)	geometric mean titers of anti-TT IgA in vaginal secretions (C57BL/6 female mice)	geometric mean titers of anti-TT serum IgA (C57BL/6 female mice)	geometric mean titers of anti-TT serum IgG (C57BL/6 female mice)	relatively most effective AT1002 dose (anti-TT serum IgG) (C57BL/6 female mice)	protection against tetanus toxin challenge (paralysis and death) (tetanus toxin)	expression of CD80 (B7-1) on monocytes (human monocytes)	expression of CD86 (B7.2) on monocytes (human monocytes)	membrane expression of HLA-DR on monocytes (human monocytes; [1])	membrane expression of HLA-I on monocytes (human monocytes; [1])	expression of CD40 on macrophages (human macrophages; 18 hours)	membrane expression of CD86 on macrophages (human macrophages; 18 hours)	membrane expression of HLA-DR on macrophages (human macrophages; 18 hours)	membrane expression of HLA-I on macrophages (human macrophages; 18 hours)	expression of CD80 on macrophages (human macrophages; 18 hours, not reported in the figure)	upregulation of HLA-I and HLA-DR molecules compared with LPS (human macrophages; macrophages, LPS positive control)
Tetanus toxoid [TT alone]	256-4,096															
FCIGRL [AT1002]		induces IgA against the co-administered antigen in a mucosal district far from the site of immunization	induces serum IgA against the co-administered antigen	higher as compared to those of animals immunized with TT alone; also recorded: higher than those observed after four doses	30 nmol	all protected	not upregulated	not upregulated	upregulates	upregulates	upregulates	strongly upregulates	strongly upregulates	strongly upregulates	also upregulated	more efficient than LPS
